{
  "source": "ChEMBL document CHEMBL3102714",
  "about": "(J Med Chem, 2013)",
  "assay_type_in_all_cases": "cell-based",
  "key": {"[1]": {"biological_target": "Neuronal acetylcholine receptor; alpha3/beta4 (Homo sapiens, UniProt P30926+P32297)", "sequence (P30926 whole entry)": "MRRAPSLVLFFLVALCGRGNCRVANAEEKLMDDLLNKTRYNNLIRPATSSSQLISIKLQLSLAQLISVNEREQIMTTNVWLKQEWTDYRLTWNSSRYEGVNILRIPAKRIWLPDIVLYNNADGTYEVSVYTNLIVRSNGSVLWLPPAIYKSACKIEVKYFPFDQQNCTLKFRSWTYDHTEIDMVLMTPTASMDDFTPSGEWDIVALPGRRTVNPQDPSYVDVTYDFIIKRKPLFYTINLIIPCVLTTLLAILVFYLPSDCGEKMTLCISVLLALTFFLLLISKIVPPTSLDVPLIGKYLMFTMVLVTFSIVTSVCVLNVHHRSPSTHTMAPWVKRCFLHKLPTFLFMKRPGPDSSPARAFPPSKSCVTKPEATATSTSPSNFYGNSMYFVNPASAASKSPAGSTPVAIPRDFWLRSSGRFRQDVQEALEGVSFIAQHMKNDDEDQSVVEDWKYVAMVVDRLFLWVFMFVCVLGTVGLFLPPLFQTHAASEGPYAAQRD", "sequence (P32297 whole entry)": "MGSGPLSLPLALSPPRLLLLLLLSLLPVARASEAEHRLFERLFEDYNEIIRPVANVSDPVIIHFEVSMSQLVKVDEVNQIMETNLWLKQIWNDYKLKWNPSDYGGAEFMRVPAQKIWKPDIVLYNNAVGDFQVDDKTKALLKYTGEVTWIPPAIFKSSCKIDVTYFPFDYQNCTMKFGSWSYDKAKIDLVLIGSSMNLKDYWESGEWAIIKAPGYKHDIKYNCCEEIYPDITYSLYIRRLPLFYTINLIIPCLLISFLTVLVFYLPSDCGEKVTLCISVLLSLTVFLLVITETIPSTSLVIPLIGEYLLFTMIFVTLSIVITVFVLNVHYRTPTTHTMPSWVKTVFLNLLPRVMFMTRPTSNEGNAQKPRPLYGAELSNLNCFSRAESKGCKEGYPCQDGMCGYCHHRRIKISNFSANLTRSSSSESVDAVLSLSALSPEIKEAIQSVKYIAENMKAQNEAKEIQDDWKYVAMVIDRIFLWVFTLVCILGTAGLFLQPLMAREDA", "assay": "Antagonist activity at human alpha3beta4 nAChR expressed in Xenopus oocytes assessed as inhibition of ACh-induced current by voltage clamp electrophysiology method"}, "[2]": {"biological_target": "Neuronal acetylcholine receptor; alpha3/alpha6/beta2/beta3 (Homo sapiens, UniProt P17787+P32297+Q05901+Q15825)", "sequence (P17787 whole entry)": "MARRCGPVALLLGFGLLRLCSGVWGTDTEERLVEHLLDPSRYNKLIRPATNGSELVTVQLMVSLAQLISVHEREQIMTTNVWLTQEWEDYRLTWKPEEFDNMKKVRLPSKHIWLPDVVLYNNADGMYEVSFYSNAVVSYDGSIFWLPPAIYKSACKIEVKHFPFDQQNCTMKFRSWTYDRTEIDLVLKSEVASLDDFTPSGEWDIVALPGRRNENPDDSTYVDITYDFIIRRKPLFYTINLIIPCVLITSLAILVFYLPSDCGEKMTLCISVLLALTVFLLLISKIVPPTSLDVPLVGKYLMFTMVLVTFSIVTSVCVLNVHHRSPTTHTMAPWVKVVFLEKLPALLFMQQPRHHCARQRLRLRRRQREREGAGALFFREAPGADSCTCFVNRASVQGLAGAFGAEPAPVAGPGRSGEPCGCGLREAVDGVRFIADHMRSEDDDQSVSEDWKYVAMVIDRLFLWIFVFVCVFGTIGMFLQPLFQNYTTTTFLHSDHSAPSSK", "sequence (P32297 whole entry)": "as the sequence (P32297 whole entry) above", "sequence (Q15825 whole entry)": "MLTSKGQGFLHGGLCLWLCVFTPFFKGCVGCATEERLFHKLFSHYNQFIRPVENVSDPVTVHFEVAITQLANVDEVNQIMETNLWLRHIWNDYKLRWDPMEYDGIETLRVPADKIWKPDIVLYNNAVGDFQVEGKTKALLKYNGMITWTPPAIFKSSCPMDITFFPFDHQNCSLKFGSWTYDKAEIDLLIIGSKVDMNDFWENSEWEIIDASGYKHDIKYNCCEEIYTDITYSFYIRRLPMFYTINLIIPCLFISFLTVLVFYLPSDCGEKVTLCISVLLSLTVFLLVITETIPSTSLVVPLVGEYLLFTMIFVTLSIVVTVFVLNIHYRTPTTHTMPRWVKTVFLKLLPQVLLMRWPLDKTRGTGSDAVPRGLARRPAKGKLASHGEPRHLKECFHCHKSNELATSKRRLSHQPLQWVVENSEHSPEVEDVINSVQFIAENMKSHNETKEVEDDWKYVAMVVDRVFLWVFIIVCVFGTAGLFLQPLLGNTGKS", "sequence (Q05901 whole entry)": "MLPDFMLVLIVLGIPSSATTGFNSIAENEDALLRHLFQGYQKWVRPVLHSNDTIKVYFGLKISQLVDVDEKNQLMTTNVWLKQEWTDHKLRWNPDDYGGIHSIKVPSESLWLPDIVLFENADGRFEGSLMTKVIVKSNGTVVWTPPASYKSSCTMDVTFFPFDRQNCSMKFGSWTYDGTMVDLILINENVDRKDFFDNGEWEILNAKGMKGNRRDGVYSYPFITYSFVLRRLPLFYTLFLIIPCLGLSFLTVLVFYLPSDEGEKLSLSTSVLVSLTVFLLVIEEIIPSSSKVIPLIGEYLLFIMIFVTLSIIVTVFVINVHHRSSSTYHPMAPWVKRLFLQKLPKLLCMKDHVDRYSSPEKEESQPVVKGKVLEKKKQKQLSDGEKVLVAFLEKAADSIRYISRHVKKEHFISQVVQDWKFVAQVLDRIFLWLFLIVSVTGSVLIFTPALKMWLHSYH", "assay": "Antagonist activity at human alpha6/alpha3beta2beta3 nAChR expressed in Xenopus oocytes assessed as inhibition of ACh-induced current by voltage clamp electrophysiology method"}, "[3]": {"biological_target": "Neuronal acetylcholine receptor; alpha3/beta2 (Homo sapiens, UniProt P17787+P32297)", "sequence (P17787 whole entry)": "as the sequence (P17787 whole entry) above", "sequence (P32297 whole entry)": "as the sequence (P32297 whole entry) above", "assay": "Antagonist activity at human alpha3beta2 nAChR expressed in Xenopus oocytes assessed as inhibition of ACh-induced current by voltage clamp electrophysiology method"}, "[4]": {"biological_target": "Nicotinic acetylcholine receptor alpha6/alpha3/beta4 (Homo sapiens, UniProt P30926+P32297+Q15825)", "sequence (P30926 whole entry)": "as the sequence (P30926 whole entry) above", "sequence (P32297 whole entry)": "as the sequence (P32297 whole entry) above", "sequence (Q15825 whole entry)": "as the sequence (Q15825 whole entry) above", "assay": "Antagonist activity at human alpha6alpha3beta4 nAChR expressed in Xenopus oocytes assessed as inhibition of ACh-induced current by voltage clamp electrophysiology method"}},
  "note": "Where a SMILES comes first, the peptide text is derived from it.",
  "data": [
    {"compound": "CC[C@H](C)[C@@H]1NC(=O)[C@H](CCC(N)=O)NC(=O)[C@@H]2CCCN2C(=O)[C@H](CC(N)=O)NC(=O)[C@H](Cc2cnc[nH]2)NC(=O)[C@H](C(C)C)NC(=O)[C@H]([C@@H](C)O)NC(=O)[C@@H]2CSSC[C@H](NC(=O)[C@@H]3CCCN3C(=O)[C@H](CC(=O)O)NC(=O)[C@@H](N)CCCN=C(N)N)C(=O)N[C@@H](CSSC[C@@H](C(N)=O)NC1=O)C(=O)N[C@@H](CO)C(=O)N[C@@H](CC(N)=O)C(=O)N1CCC[C@H]1C(=O)N[C@@H](C(C)C)C(=O)N2", "note": "(HELM PEPTIDE1{R.D.P.C.C.S.N.P.V.C.T.V.H.N.P.Q.I.C.[am]}$PEPTIDE1,PEPTIDE1,4:R3-10:R3|PEPTIDE1,PEPTIDE1,5:R3-18:R3$$$V2.0)", "values": [
      {"measurement": "IC50", "setting": "[1]", "value": 0.518, "unit": "µM"},
      {"measurement": "IC50", "setting": "[2]", "value": 0.00095, "unit": "µM"},
      {"measurement": "IC50", "setting": "[3]", "value": 0.0742, "unit": "µM"},
      {"measurement": "IC50", "setting": "[4]", "value": 0.0305, "unit": "µM"}
    ]}
  ]
}
